Source: the NIST ThermoML archive (doi:10.1021/acs.jced.6b00575)
Numbers after ± are expanded uncertainties.

Settings: 101.33 kPa, Liquid; for viscosity: Concentric cylinders viscometry; for mass density: Vibrating tube method; for electrical conductivity: Alternating current cell with electrodes

CCC(=O)N(C)C [N,N-dimethylpropionamide]
viscosity (273.15 K): 1.44 ± 0.03 mPa·s | mass density (273.15 K): 942.45 ± 3.8 kg/m3 | viscosity (278.15 K): 1.32 ± 0.03 mPa·s | mass density (278.15 K): 938.02 ± 3.8 kg/m3 | viscosity (283.15 K): 1.21 ± 0.03 mPa·s | mass density (283.15 K): 933.6 ± 3.8 kg/m3 | viscosity (288.15 K): 1.11 ± 0.03 mPa·s | mass density (288.15 K): 929.18 ± 3.8 kg/m3 | viscosity (293.15 K): 1.02 ± 0.02 mPa·s | mass density (293.15 K): 924.75 ± 3.8 kg/m3 | viscosity (298.15 K): 0.958 ± 0.022 mPa·s | mass density (298.15 K): 920.32 ± 3.7 kg/m3 | viscosity (303.15 K): 0.892 ± 0.021 mPa·s | mass density (303.15 K): 915.93 ± 3.7 kg/m3 | viscosity (313.15 K): 0.778 ± 0.018 mPa·s | mass density (313.15 K): 907.04 ± 3.7 kg/m3 | viscosity (323.15 K): 0.696 ± 0.017 mPa·s | mass density (323.15 K): 898.13 ± 3.6 kg/m3 | viscosity (333.15 K): 0.618 ± 0.015 mPa·s | mass density (333.15 K): 889.17 ± 3.6 kg/m3 | viscosity (343.15 K): 0.556 ± 0.013 mPa·s | mass density (343.15 K): 880.17 ± 3.6 kg/m3 | viscosity (353.15 K): 0.504 ± 0.012 mPa·s | mass density (353.15 K): 871.11 ± 3.5 kg/m3 | viscosity (363.15 K): 0.46 ± 0.011 mPa·s | mass density (363.15 K): 861.99 ± 3.5 kg/m3

CC(=O)N(C)C [N,N-dimethylethanamide]
viscosity (273.15 K): 1.41 ± 0.03 mPa·s | mass density (273.15 K): 959.16 ± 0.98 kg/m3 | viscosity (278.15 K): 1.29 ± 0.03 mPa·s | mass density (278.15 K): 954.56 ± 0.98 kg/m3 | viscosity (283.15 K): 1.19 ± 0.03 mPa·s | mass density (283.15 K): 949.95 ± 0.97 kg/m3 | viscosity (288.15 K): 1.09 ± 0.02 mPa·s | mass density (288.15 K): 945.35 ± 0.97 kg/m3 | viscosity (293.15 K): 1 ± 0.02 mPa·s | mass density (293.15 K): 940.74 ± 0.96 kg/m3 | viscosity (298.15 K): 0.946 ± 0.02 mPa·s | mass density (298.15 K): 936.13 ± 0.96 kg/m3 | viscosity (303.15 K): 0.883 ± 0.019 mPa·s | mass density (303.15 K): 931.51 ± 0.96 kg/m3 | viscosity (313.15 K): 0.772 ± 0.017 mPa·s | mass density (313.15 K): 922.26 ± 0.95 kg/m3 | viscosity (323.15 K): 0.692 ± 0.015 mPa·s | mass density (323.15 K): 912.99 ± 0.94 kg/m3 | viscosity (333.15 K): 0.614 ± 0.014 mPa·s | mass density (333.15 K): 903.68 ± 0.93 kg/m3 | viscosity (343.15 K): 0.553 ± 0.013 mPa·s | mass density (343.15 K): 894.31 ± 0.92 kg/m3 | viscosity (353.15 K): 0.502 ± 0.011 mPa·s | mass density (353.15 K): 884.9 ± 0.91 kg/m3 | viscosity (363.15 K): 0.459 ± 0.011 mPa·s | mass density (363.15 K): 875.43 ± 0.9 kg/m3

CCC(=O)[NH+](C)C.O=S(=O)([N-]S(=O)(=O)C(F)(F)F)C(F)(F)F
electrical conductivity (273.15 K): 0.053 ± 0.001 S/m | viscosity (273.15 K): 583.6 ± 21 mPa·s | mass density (273.15 K): 1546.8 ± 1.7 kg/m3 | electrical conductivity (278.15 K): 0.075 ± 0.002 S/m | viscosity (278.15 K): 401.3 ± 13 mPa·s | mass density (278.15 K): 1541.52 ± 1.7 kg/m3 | electrical conductivity (283.15 K): 0.103 ± 0.002 S/m | viscosity (283.15 K): 284.2 ± 8.5 mPa·s | mass density (283.15 K): 1536.2 ± 1.7 kg/m3 | electrical conductivity (288.15 K): 0.136 ± 0.003 S/m | viscosity (288.15 K): 207.2 ± 5.6 mPa·s | mass density (288.15 K): 1530.91 ± 1.7 kg/m3 | electrical conductivity (293.15 K): 0.177 ± 0.004 S/m | viscosity (293.15 K): 154.9 ± 3.9 mPa·s | mass density (293.15 K): 1525.62 ± 1.6 kg/m3 | electrical conductivity (298.15 K): 0.225 ± 0.005 S/m | viscosity (298.15 K): 117.7 ± 2.7 mPa·s | mass density (298.15 K): 1520.35 ± 1.6 kg/m3 | electrical conductivity (303.15 K): 0.28 ± 0.006 S/m | viscosity (303.15 K): 91.33 ± 2 mPa·s | mass density (303.15 K): 1515.12 ± 1.6 kg/m3 | electrical conductivity (313.15 K): 0.415 ± 0.008 S/m | viscosity (313.15 K): 57.92 ± 1.2 mPa·s | mass density (313.15 K): 1504.73 ± 1.6 kg/m3 | electrical conductivity (323.15 K): 0.585 ± 0.012 S/m | viscosity (323.15 K): 39.33 ± 0.82 mPa·s | mass density (323.15 K): 1494.43 ± 1.6 kg/m3 | electrical conductivity (333.15 K): 0.787 ± 0.016 S/m | viscosity (333.15 K): 27.84 ± 0.58 mPa·s | mass density (333.15 K): 1484.21 ± 1.6 kg/m3 | electrical conductivity (343.15 K): 1.01 ± 0.02 S/m | viscosity (343.15 K): 20.58 ± 0.43 mPa·s | mass density (343.15 K): 1474.06 ± 1.6 kg/m3 | electrical conductivity (353.15 K): 1.28 ± 0.026 S/m | viscosity (353.15 K): 15.67 ± 0.33 mPa·s | mass density (353.15 K): 1463.98 ± 1.6 kg/m3 | viscosity (363.15 K): 12.28 ± 0.26 mPa·s | mass density (363.15 K): 1453.97 ± 1.6 kg/m3

CN(C)C=O [dimethylformamide]
viscosity (273.15 K): 1.14 ± 0.02 mPa·s | mass density (273.15 K): 967.56 ± 0.12 kg/m3 | viscosity (278.15 K): 1.06 ± 0.02 mPa·s | mass density (278.15 K): 962.83 ± 0.12 kg/m3 | viscosity (283.15 K): 0.979 ± 0.021 mPa·s | mass density (283.15 K): 958.1 ± 0.12 kg/m3 | viscosity (288.15 K): 0.891 ± 0.019 mPa·s | mass density (288.15 K): 953.37 ± 0.12 kg/m3 | viscosity (293.15 K): 0.845 ± 0.018 mPa·s | mass density (293.15 K): 948.61 ± 0.12 kg/m3 | viscosity (298.15 K): 0.81 ± 0.017 mPa·s | mass density (298.15 K): 943.85 ± 0.13 kg/m3 | viscosity (303.15 K): 0.765 ± 0.016 mPa·s | mass density (303.15 K): 939.07 ± 0.13 kg/m3 | viscosity (313.15 K): 0.684 ± 0.015 mPa·s | mass density (313.15 K): 929.5 ± 0.13 kg/m3 | viscosity (323.15 K): 0.615 ± 0.013 mPa·s | mass density (323.15 K): 919.86 ± 0.14 kg/m3 | viscosity (333.15 K): 0.535 ± 0.012 mPa·s | mass density (333.15 K): 910.17 ± 0.14 kg/m3 | viscosity (343.15 K): 0.484 ± 0.011 mPa·s | mass density (343.15 K): 900.41 ± 0.14 kg/m3 | viscosity (353.15 K): 0.436 ± 0.01 mPa·s | mass density (353.15 K): 890.57 ± 0.15 kg/m3 | viscosity (363.15 K): 0.398 ± 0.009 mPa·s | mass density (363.15 K): 880.65 ± 0.15 kg/m3

CC(=O)[NH+](C)C.O=S(=O)([N-]S(=O)(=O)C(F)(F)F)C(F)(F)F [N,N-dimethylacetamidium bis(trifluoromethanesulfonyl)amide]
electrical conductivity (313.15 K): 0.403 ± 0.008 S/m | viscosity (313.15 K): 67.83 ± 1.4 mPa·s | mass density (313.15 K): 1549.8 ± 1.7 kg/m3 | electrical conductivity (323.15 K): 0.574 ± 0.011 S/m | viscosity (323.15 K): 44.71 ± 0.93 mPa·s | mass density (323.15 K): 1539.4 ± 1.7 kg/m3 | electrical conductivity (333.15 K): 0.782 ± 0.016 S/m | viscosity (333.15 K): 31.31 ± 0.65 mPa·s | mass density (333.15 K): 1529.1 ± 1.7 kg/m3 | electrical conductivity (343.15 K): 1.02 ± 0.02 S/m | viscosity (343.15 K): 22.85 ± 0.48 mPa·s | mass density (343.15 K): 1518.6 ± 1.6 kg/m3 | electrical conductivity (353.15 K): 1.29 ± 0.026 S/m | viscosity (353.15 K): 17.35 ± 0.36 mPa·s | mass density (353.15 K): 1508.1 ± 1.6 kg/m3 | viscosity (363.15 K): 13.51 ± 0.28 mPa·s | mass density (363.15 K): 1497.8 ± 1.6 kg/m3
